Consider 12 compounds from US8129366B2, “VLA-4 inhibitory drug” (Daiichi Sankyo Company, Limited, priority 2005, dated 2012).

The target in data set [1] is T1, hα4 and β1 integrins (Homo sapiens, UniProt P05556+P13612).
T1 construct: expressed in transfected cells; host or cells: CHO cells
Kind of data set: In vitro inhibition of binding between CHO cells expressing hα4 and β1 integrins and Eu3+-hVCAM-1 D1D7-IgG. To be noted: for Ki: CHO cells expressing hα4 and β1 integrins, Eu3+-hVCAM-1 D1D7-IgG ligand, without HSA; for IC50: in the presence of 3% human serum albumin (HSA final concentration 3%). A digest of the protocol:
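Transfected CHO cells, cultured 2 days, were incubated with compound and Eu³⁺-hVCAM-1 D1D7-IgG (diluted to 2 nM) for 1 h at room temperature. Buffer was 25 mM HEPES pH 7.5 with 1 mM Ca²⁺, 1 mM Mg²⁺, 4 mM Mn²⁺ and 0.1% BSA, ±3% HSA final. Cells were washed at 4 °C and read by DELFIA time-resolved fluorescence; Ki was derived from IC50 using the Scatchard Kd.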

Data set [2] has as its system eosinophile infiltration in mice actively sensitized with ascaris. Kind of data set: Test for eosinophile infiltration in mice actively sensitized with ascaris, administered two times a day. It is filed as in vivo. To be noted: orally 5 mg/kg two times a day; for inhibition in vivo at 5 mg/kg: Mus musculus, po, eosinophile count in BALF 48 hours after sensitization vs ascaris-sensitized group, read-out: suppression rate (%); for Average total eosinophile count (×10^5) of (ascaris-sensitized + substance under test) group: BALF 48 hours after sensitization. The method, then:
Test for eosinophile infiltration in mice actively sensitized with ascaris (antigen to pig roundworm):
It has been reported that infiltration of eosinophilic cells is induced by active sensitization with ascaris {Int. Arch. Immuno., 108, 11-18 (1995)}. An evaluation of the compounds under test was performed according to the evaluation method described herein. The substance under test was orally administered in an amount of 5 mg/kg, two times a day. The total cell count and the eosinophile count in BALF of 48 hours after sensitization were calculated, and the effects were determined by comparing with the group not administered with the substance under test.

A short description of data set [3]: Solubility test in first and second liquid of the Japanese Pharmacopoeia. The following applies: Solubility.
Method: The solubilities of the substance under test in the first liquid (JP1, pH=1.2) of the Japanese Pharmacopoeia and the second liquid (JP2, pH=6.8) of the Japanese Pharmacopoeia, were evaluated.
Where [4] appears, read: first liquid of the Japanese Pharmacopoeia (JP1), pH 1.2, simulated gastric fluid, First liquid of Japanese Pharmacopoeia (μg/mL), JP1, pH=1.2.
Where [5] appears, read: second liquid of the Japanese Pharmacopoeia (JP2), pH 6.8, aqueous buffer, Second liquid of Japanese Pharmacopoeia (μg/mL), JP2, pH=6.8.

Converted amounts (≈) assume the structure as drawn.

T1 sequence (P13612 34-1032): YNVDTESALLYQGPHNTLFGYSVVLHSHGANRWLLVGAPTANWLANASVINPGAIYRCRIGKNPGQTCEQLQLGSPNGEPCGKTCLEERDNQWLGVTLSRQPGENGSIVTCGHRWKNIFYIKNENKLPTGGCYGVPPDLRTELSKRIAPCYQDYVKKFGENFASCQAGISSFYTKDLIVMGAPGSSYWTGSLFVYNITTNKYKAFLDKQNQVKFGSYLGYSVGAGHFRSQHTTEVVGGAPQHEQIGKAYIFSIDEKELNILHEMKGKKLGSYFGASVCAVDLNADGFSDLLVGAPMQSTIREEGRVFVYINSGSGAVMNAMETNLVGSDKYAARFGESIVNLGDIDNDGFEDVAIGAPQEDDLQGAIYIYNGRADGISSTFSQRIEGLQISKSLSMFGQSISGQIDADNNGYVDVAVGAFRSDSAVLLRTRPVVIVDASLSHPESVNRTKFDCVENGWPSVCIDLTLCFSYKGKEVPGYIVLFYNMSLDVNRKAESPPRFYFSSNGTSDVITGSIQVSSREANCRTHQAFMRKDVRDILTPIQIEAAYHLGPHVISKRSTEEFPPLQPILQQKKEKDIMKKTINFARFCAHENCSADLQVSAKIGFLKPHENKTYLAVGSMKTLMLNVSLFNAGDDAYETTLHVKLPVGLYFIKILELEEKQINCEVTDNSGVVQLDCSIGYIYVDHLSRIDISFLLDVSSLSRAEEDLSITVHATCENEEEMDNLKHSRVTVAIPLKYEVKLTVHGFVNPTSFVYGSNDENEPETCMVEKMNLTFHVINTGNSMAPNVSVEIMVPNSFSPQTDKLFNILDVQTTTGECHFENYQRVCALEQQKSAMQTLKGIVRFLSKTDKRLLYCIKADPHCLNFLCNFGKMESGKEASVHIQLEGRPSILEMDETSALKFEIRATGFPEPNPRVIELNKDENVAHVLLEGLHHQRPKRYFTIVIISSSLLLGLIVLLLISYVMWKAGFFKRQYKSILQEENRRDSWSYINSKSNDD
T1 sequence (P05556 21-798): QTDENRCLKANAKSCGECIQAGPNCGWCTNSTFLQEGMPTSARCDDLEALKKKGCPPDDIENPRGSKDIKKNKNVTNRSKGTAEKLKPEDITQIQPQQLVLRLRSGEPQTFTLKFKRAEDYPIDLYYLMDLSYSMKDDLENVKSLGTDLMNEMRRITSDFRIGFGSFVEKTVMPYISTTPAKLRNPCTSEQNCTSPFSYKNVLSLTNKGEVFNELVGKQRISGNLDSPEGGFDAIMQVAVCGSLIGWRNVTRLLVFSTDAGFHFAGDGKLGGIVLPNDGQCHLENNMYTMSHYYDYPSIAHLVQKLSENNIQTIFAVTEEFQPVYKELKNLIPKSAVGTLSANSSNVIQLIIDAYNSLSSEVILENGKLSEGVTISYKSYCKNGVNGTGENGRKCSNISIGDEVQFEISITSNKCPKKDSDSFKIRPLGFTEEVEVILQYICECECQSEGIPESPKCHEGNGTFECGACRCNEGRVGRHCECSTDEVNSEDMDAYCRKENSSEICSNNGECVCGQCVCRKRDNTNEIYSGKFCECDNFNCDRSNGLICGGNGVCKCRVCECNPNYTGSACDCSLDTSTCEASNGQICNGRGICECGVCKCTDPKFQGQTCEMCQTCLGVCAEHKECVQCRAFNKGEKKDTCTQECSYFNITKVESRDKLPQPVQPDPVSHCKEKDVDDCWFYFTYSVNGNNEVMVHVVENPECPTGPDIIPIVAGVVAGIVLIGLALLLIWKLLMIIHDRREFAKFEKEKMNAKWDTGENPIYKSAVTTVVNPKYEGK

Consider `Cn1cc(C(=O)Nc2cc(F)c(CC(=O)N3C[C@@H](N4C[C@H]5COC[C@H]5C4)C[C@H]3CO[C@H]3CC[C@H](C(=O)O)CC3)cc2Cl)c2ccccc21` [Example 72], for which, in data set [1], the Ki turned out to be 2.8 nM and the IC50 worked out at 15 nM. In addition, in data set [2], the inhibition in vivo at 5 mg/kg is 70% and the “Average total eosinophile count (×10^5) of (ascaris-sensitized + substance under test) group” value was 1.41 ×10^5.
With `C[C@@H]1CN([C@H]2C[C@@H](CO[C@H]3CC[C@H](C(=O)O)CC3)N(C(=O)Cc3cc(Cl)c(NC(=O)c4cn(C)c5ccccc45)cc3Cl)C2)C[C@H](C)O1` [Example 80, Trans-4-[1-[[2,5-dichloro-4-[(1-methyl-1H-indol-3-ylcarbonyl)amino]phenyl]acetyl]-(4S)-(cis-2,6-dimethylmorpholin-4-yl)-(2S)-pyrrolidinylmethoxy]cyclohexanecarboxylic acid], in data set [1], the affinity, expressed as Ki, was 6.5 nM and the IC50 amounted to 20 nM. Also, in data set [2], the inhibition in vivo at 5 mg/kg was found to be 51% and the “Average total eosinophile count (×10^5) of (ascaris-sensitized + substance under test) group” value was 1.86 ×10^5.
Take `C[C@@H]1CN([C@H]2C[C@@H](CO[C@H]3CC[C@H](C(=O)O)CC3)N(C(=O)Cc3ccc(NC(=O)c4nn(C)c5ccccc45)c(Cl)c3)C2)C[C@H](C)O1` [Example 88, Trans-4-[1-[[3-chloro-4-[(1-methyl-1H-indazol-3-ylcarbonyl)amino]phenyl]acetyl]-(4S)-(cis-2,6-dimethylmorpholin-4-yl)-(2S)-pyrrolidinylmethoxy]cyclohexanecarboxylic acid]: in data set [1], the Ki is 1.5 nM. The half-inhibitory concentration (IC50) in data set [1] came out at 9 nM. Also, the figures for the solubility in data set [3] (setting [4]) and in data set [3] (setting [5]) were 1100 µg/mL (≈ 1650 µM) and 1300 µg/mL (≈ 1950 µM), respectively.
The compound `COCC1CCN([C@H]2C[C@@H](CO[C@H]3CC[C@H](C(=O)O)CC3)N(C(=O)Cc3cc(Cl)c(NC(=O)c4csc5ccccc45)cc3F)C2)CC1` [Example 99, Trans-4-[1-[[4-[(benzo[b]thiophen-3-ylcarbonyl)amino]-5-chloro-2-fluorophenyl]acetyl]-(4S)-[(4-methoxymethyl)piperidin-1-yl]-(2S)-pyrrolidinylmethoxy]cyclohexanecarboxylic acid] had an inhibitory constant (Ki) in data set [1] of 0.34 nM. In addition, the IC50 in data set [1] amounted to 3.8 nM. The solubility in data set [3] (setting [4]) was above 2000 µg/mL; in data set [3] (setting [5]), 1020 µg/mL (≈ 1450 µM).
Consider `COC1CCN([C@H]2C[C@@H](CO[C@H]3CC[C@H](C(=O)O)CC3)N(C(=O)Cc3cc(Cl)c(NC(=O)c4csc5ccccc45)cc3F)C2)CC1` [Example 103, Trans-4-[1-[[4-[(benzo[b]thiophen-3-ylcarbonyl)amino]-5-chloro-2-fluorophenyl]acetyl]-(4S)-(4-methoxypiperidin-1-yl)-(2S)-pyrrolidinylmethoxy]cyclohexanecarboxylic acid], for which, in data set [1], the Ki was found to be 0.32 nM and the IC50 turned out to be 2.2 nM. For the same compound, in data set [3] (setting [4]), the solubility is above 2000 µg/mL. The concentration in solution in data set [3] (setting [5]) (solubility) was 1360 µg/mL (≈ 1990 µM).
Take `CO[C@@H]1CCCN([C@H]2C[C@@H](CO[C@H]3CC[C@H](C(=O)O)CC3)N(C(=O)Cc3cc(Cl)c(NC(=O)c4csc5ccccc45)cc3F)C2)C1` [Example 106, Trans-4-[1-[[4-[(benzo[b]thiophen-3-ylcarbonyl)amino]-5-chloro-2-fluorophenyl]acetyl]-(4S)-[(3R)-methoxypiperidin-1-yl]-(2S)-pyrrolidinylmethoxy]cyclohexanecarboxylic acid]: in data set [1], the Ki is 1.2 nM and the IC50 worked out at 9.2 nM. For the same compound, in data set [3] (setting [4]), the solubility was above 2000 µg/mL. The concentration in solution in data set [3] (setting [5]) (solubility) was 1580 µg/mL (≈ 2310 µM).
In the case of `CN(C)C(=O)C1CCN([C@H]2C[C@@H](CO[C@H]3CC[C@H](C(=O)O)CC3)N(C(=O)Cc3cc(Cl)c(NC(=O)c4coc5ccccc45)cc3Cl)C2)CC1` [Example 107, Trans-4-[1-[[4-[(benzo[b]furan-3-ylcarbonyl)amino]-2,5-dichlorophenyl]acetyl]-(4S)-[4-(dimethylcarbamoyl)piperidin-1-yl]-(2S)-pyrrolidinylmethoxy]cyclohexanecarboxylic acid], in data set [1], the inhibition constant (Ki) was 1.8 nM and the IC50 is 7.6 nM. In addition, the concentration in solution in data set [3] (setting [4]) (solubility) came to 1200 µg/mL (≈ 1650 µM). In addition, in data set [3] (setting [5]), the concentration in solution (solubility) came to 1200 µg/mL (≈ 1650 µM).
In data set [1], `O=C(Nc1cc(F)c(CC(=O)N2C[C@@H](N3CCC(N4CCOCC4)CC3)C[C@H]2CO[C@H]2CC[C@H](C(=O)O)CC2)cc1Cl)c1csc2ccccc12` [Example 110, Trans-4-[1-[[4-[(benzo[b]thiophen-3-ylcarbonyl)amino]-5-chloro-2-fluorophenyl]acetyl]-(4S)-[4-(morpholin-4-yl)piperidin-1-yl]-(2S)-pyrrolidinylmethoxy]cyclohexanecarboxylic acid] yielded a Ki of 0.25 nM. Further, the IC50 in data set [1] was found to be 30 nM. Besides, the solubility in data set [3] (setting [4]) and in data set [3] (setting [5]) was above 2000 µg/mL throughout.
Consider `CC(C)N1CCN([C@H]2C[C@@H](CO[C@H]3CC[C@H](C(=O)O)CC3)N(C(=O)Cc3cc(Cl)c(NC(=O)c4cn(C)c5ccccc45)cc3Cl)C2)CC1` [Example 113, Trans-4-[1-[[2,5-dichloro-4-[(1-methyl-1H-indol-3-ylcarbonyl)amino]phenyl]acetyl]-(4S)-(4-isopropylpiperazin-1-yl)-(2S)-pyrrolidinylmethoxy]cyclohexanecarboxylic acid], for which the Ki in data set [1] was 2.8 nM. The IC50 in data set [1] amounted to 9.5 nM. The solubility in data set [3] (setting [4]) and in data set [3] (setting [5]) was 1000 µg/mL (≈ 1400 µM) in each case.
The compound `C[C@@H]1CN([C@H]2C[C@@H](CO[C@H]3CC[C@H](C(=O)O)CC3)N(C(=O)Cc3cc(Cl)c(NC(=O)c4cn(C)c5ccccc45)cc3F)C2)C[C@H](C)N1CCF` [Example 147, Trans-4-[1-[[5-chloro-2-fluoro-4-[(1-methyl-1H-indol-3-ylcarbonyl)amino]phenyl]acetyl]-(4S)-[cis-2,6-dimethyl-1-(2-fluoroethyl)piperazin-4-yl]-(2S)-pyrrolidinylmethoxy]cyclohexanecarboxylic acid] showed an inhibition constant (Ki) in data set [1] of 3.2 nM. Also, in data set [1], the half-inhibitory concentration (IC50) worked out at 12 nM. For the same compound, the solubility in data set [3] (setting [4]) and in data set [3] (setting [5]) was 1400 µg/mL (≈ 1920 µM) throughout.
As for `Cn1cc(C(=O)Nc2cc(Cl)c(CC(=O)N3C[C@@H](N4CC5CC4CN5C4CC4)C[C@H]3CO[C@H]3CC[C@H](C(=O)O)CC3)cc2Cl)c2ccccc21` (stereo partly drawn) [Example 164, Trans-4-[1-[[2,5-dichloro-4-[(1-methyl-1H-indol-3-ylcarbonyl)amino]phenyl]acetyl]-(4S)-[(1S,4S)-2-cyclopropyl-2,5-diazabicyclo[2.2.1]heptan-5-yl]-(2S)-pyrrolidinylmethoxy]cyclohexanecarboxylic acid], in data set [1], the Ki was determined as 13 nM and the IC50 was 71 nM. The solubility in data set [3] (setting [4]) is 1000 µg/mL (≈ 1380 µM). The compound also showed a solubility in data set [3] (setting [5]) of 1000 µg/mL (≈ 1380 µM).
Take `Cn1cc(C(=O)Nc2cc(Cl)c(CC(=O)N3C[C@@H](N4CCCOCC4)C[C@H]3CO[C@H]3CC[C@H](C(=O)O)CC3)cc2Cl)c2ccccc21` [Example 165, Trans-4-[1-[[2,5-dichloro-4-[(1-methyl-1H-indol-3-ylcarbonyl)amino]phenyl]acetyl]-(4S)-([1,4]-oxazepan-4-yl)-(2S)-pyrrolidinylmethoxy]cyclohexanecarboxylic acid]: in data set [1], the affinity, expressed as Ki, was 8.2 nM and the IC50 was determined as 12 nM. Besides, the solubility in data set [3] (setting [4]) is above 2000 µg/mL. The compound further displayed a solubility in data set [3] (setting [5]) above 2000 µg/mL.

As usually defined, the Ki is a dissociation constant, usually derived from enzyme kinetics or from competition with a known ligand. Higher therefore signals lower affinity. For orientation: IC50 means the concentration needed to halve the response being measured. The solubility is the concentration that dissolves in the medium under given conditions. Read a high solubility as a readily soluble substance.
